# Measurements: patent US20060094676A1, “Compositions and methods for treating cancer using compositions comprising an inhibitor of endothelin receptor activity” (priority 2004, published 2006)
# Legend:
# ETRB [1] = test: Real-time RT-PCR of ETRB transcripts; assay type: cell-based, human; conditions: BQ788 treatment
# Protocol: (§1) Real-time RT-PCR detection of ETRB transcripts (see legends FIG. 2) (A). ETRB protein expression compared to tubulin in SK-MEL-28 cells after 3, 5 and 7 days with (+) or without (−) BQ788 (B).
# RNA was prepared from the different cell lines in different culture conditions using SV total RNA isolation kit (Promega) according to the manufacturer's protocol. For each sample RNA concentration was determined using the total RNA nano procedure of an Agilent bioanalyzer. A stock of SK-MEL-28 RNA aliquots was prepared containing 10, 20, 50, 100, 200, 500 and 1000 ng/12 μl for use as a standard curve and kept in −80° C. For the experimental unknown samples, a stock of 100 ng/12 μl RNA aliquots from each cell line and condition was prepared and stored at −80° C. For each real-time experiment one series of standard curve and unknown experimental series of aliquots was put on ice for use. Complementary DNA was prepared by adding to each tube 0.5 μl of random hexamers (Promega) and 1 μl of 10 mM dNTP mix (Promega) and incubating at 65° C. for 5 min. 4 μl of 5× M-MLV buffer (Promega), 1 μl of the RNase inhibitor RNasin (Promega) and 1 μl of M-MLV RT RNase H (Promega) were then added and the solution was incubated at 42° C. for 50 min followed by 15 min at 70° C. For real time reactions 15 μl of each cDNA sample were transferred to 3 wells in a 386 well plate. To each well we added 10 μl of TaqMan universal PCR master mix (Applied Biosystems), 1 μl of primers+probe mix (Assays-on-Demand from Applied Biosystems: EDNRB Hs00240747, BCL-2A1 Hs00187845, PARP-3 Hs00154151, VEGF Hs00173626, HIF-1α Hs00153153 and Gravin Hs00374507) and 4 μl of nuclease free water (Promega). Wells containing water instead of cDNA served as negative controls. The samples were subjected to 40 cycles of 15 sec at 95° C. and 1 min at 60° C. A standard curve of Ct versus RNA quantity was established and accordingly the Ct in the unknown samples was correlated to quantity of transcript.
# HIF-1α = test: Real-time RT-PCR of HIF-1α transcripts; assay type: cell-based, human; conditions: melanoma cell lines treated with BQ788; amplitude correlates with VEGF changes
# Protocol: (§2) Equal amounts of RNA from cells that were treated with BQ788 for 3 days were subjected to real-time RT-PCR analysis for the detection VEGF (A), HIF-1α (B) and Gravin (C) transcripts. Differences in expression levels are shown as x fold change and are statistically significant (p<0.05) unless a column in marked as non significant (N.S.). Sections of two representative tumors derived from a human melanoma cell line grown in nude mice and injected either with vehicle (D) or BQ788 (E) were stained with anti CD-31 to highlight blood vessels (brown staining, Lahav et al, 1999).
# (§3) RNA was prepared from the different cell lines in different culture conditions using SV total RNA isolation kit (Promega) according to the manufacturer's protocol. For each sample RNA concentration was determined using the total RNA nano procedure of an Agilent bioanalyzer. A stock of SK-MEL-28 RNA aliquots was prepared containing 10, 20, 50, 100, 200, 500 and 1000 ng/12 μl for use as a standard curve and kept in −80° C. For the experimental unknown samples, a stock of 100 ng/12 μl RNA aliquots from each cell line and condition was prepared and stored at −80° C. […] A standard curve of Ct versus RNA quantity was established and accordingly the Ct in the unknown samples was correlated to quantity of transcript. […]
# GRAVIN = test: Real-time RT-PCR of Gravin transcripts; assay type: cell-based, human; conditions: melanoma cell lines treated with BQ788
# Protocol: as §2, §3
# ETRB [2] = test: Western blot of ETRB protein after BQ788; assay type: cell-based, human; conditions: SK-MEL-28 cells; 3, 5 and 7 days with BQ788
# From the text: as §1
# Samples were subjected to SDS-PAGE according to the method as described (Laemmli, Cleavage of structural proteins during the assembly of the head of bacteriophage T4, Nature, 227:680-685 (1970)). Proteins were blotted onto PVDF (Millipore) membranes and the filters were blocked with 5% non-fat dry milk. Immunostaining was preformed with anti-human endothelin receptor B antibody (Assay Designs, Inc.) (4 μg/ml) or anti-human Tubulin (Oncogene Research Products) (1 μg/ml) followed by incubation with a peroxidase conjugated goat anti rabbit secondary antibody (Sigma) (1:5000). Bands of 51 kd and 60 kd for ETRB (Hiraki, et al, Regular immunohistochemical localization of endothelin-1 and endothelin receptor B in normal, hyperplastic and neoplastic human adrenocortical cells, Pathol. Int., 47:117-125 (1997)) and tubulin respectively were detected using a chemiluminescent substrate kit (Interchim) according to the manufacturer's recommendations.
# [3] = tested on: tumors derived from a human melanoma cell line grown in nude mice; conditions: cited from earlier work
structure (smiles),measurement,setting,value
"CCCC[C@@H](NC(=O)[C@@H](Cc1cn(C(=O)OC)c2ccccc12)NC(=O)[C@H](CC(C)(C)C)NC(=O)N1[C@H](C)CCC[C@@H]1C)C(=O)O [BQ788, N-cis-2,6-dimethylpiperidinocarbonyl-L-γ-methylleucyl-D-1-methoxycarbonyltrptophanyl-D-norleucine]",reduction in ETRB mRNA expression,ETRB [1]; Cut-met line,1.49 fold
same,reduction in ETRB mRNA expression,ETRB [1]; LN-met line,1.85 fold
same,reduction in ETRB mRNA expression,ETRB [1]; SK-MEL-28 cells,11 fold
same,ETRB expression level change,ETRB [1]; primary melanoma cells,did not show any change
same,HIF-1α RNA expression levels,HIF-1α,small but significant changes
same,GRAVIN expression,GRAVIN,down-regulated
same,ETRB protein levels,ETRB [2],reduced
same,tumor growth,[3]; human melanoma tumors in nude mice injected with BQ788,inhibition of growth
same,tumor size,"[3]; tumors treated systemically, nude mice",shrinkage of tumors
